Results on nine compounds are retold here after patent US6180656A, “Use of condensated (hetaryl-substituted) 1-benzal-3-pyrazol derivates for treating special diseases of the cardiovascular and the central nervous systems” (Bayer Aktiengesellschaft, priority 1996, dated 2001).

Assay [1] deals with anaesthetized rats. In words: Blood pressure measurements on anaesthetized rats. It counts as in vivo. As to conditions: anaesthetized male Wistar rats; for Max. blood pressure decrease: time 60 min. Here is the method:
(§1) To determine the cardiovascular action, the following investigations were carried out: in in vitro investigations on cells of vascular origin, the influence on guanylate cyclase-dependent cGMP formation was tested with and without NO donors. The vasorelaxant action was determined on rabbit aorta rings precontracted with phenylephrine. The hypotensive action was investigated in anaesthetized rats.
Blood Pressure Measurements on Anaesthetized Rats
Male Wistar rats having a body weight of 300-350 g are anaesthetized with thiopental (100 mg/kg i.p.). After tracheotomy, a catheter is inserted in the femoral artery for blood pressure measurement. The substances to be tested are administered orally in various doses as a suspension in Tylose solution by means of stomach tube.

In assay [2] the test system is rabbit aorta rings. In words: Vasorelaxant action in vitro (aorta rings precontracted with phenylephrine). As to conditions: Oryctolagus cuniculus; isolated rabbit aorta, phenylephrine contraction, 37° C., reduction of control contraction by 50%; read-out: Aorta IC 50. The method, then: as §1
Vasorelaxant Action in vitro
1.5 mm wide rings of an isolated rabbit aorta are placed individually under a pretension into 5 ml organ baths containing carbogen-aerated Krebs-Henseleit solution at a temperature of 37° C. The contractile force is amplified and digitalized, and recorded in parallel on a linear recorder. To generate a contraction, phenylephrine is added to the bath cumulatively in increasing concentration.
After several control cycles, the substance to be investigated is investigated in each further passage in increasing dose in each case and the contraction is compared with the height of the contraction achieved in the last previous passage. From this, the concentration is calculated which is necessary to reduce the height of the control value by 50% (IC50). The standard administration volume is 5 μl.

In assay [3] the target is T1, soluble guanylate cyclase (Sus scrofa, UniProt A0A4X1U7N1+A0ACM8Q7I6).
T1 construct: endogenous in cells; host or cells: primary endothelial cells from pig aorta
T1 sequence (A0A4X1U7N1 1-619): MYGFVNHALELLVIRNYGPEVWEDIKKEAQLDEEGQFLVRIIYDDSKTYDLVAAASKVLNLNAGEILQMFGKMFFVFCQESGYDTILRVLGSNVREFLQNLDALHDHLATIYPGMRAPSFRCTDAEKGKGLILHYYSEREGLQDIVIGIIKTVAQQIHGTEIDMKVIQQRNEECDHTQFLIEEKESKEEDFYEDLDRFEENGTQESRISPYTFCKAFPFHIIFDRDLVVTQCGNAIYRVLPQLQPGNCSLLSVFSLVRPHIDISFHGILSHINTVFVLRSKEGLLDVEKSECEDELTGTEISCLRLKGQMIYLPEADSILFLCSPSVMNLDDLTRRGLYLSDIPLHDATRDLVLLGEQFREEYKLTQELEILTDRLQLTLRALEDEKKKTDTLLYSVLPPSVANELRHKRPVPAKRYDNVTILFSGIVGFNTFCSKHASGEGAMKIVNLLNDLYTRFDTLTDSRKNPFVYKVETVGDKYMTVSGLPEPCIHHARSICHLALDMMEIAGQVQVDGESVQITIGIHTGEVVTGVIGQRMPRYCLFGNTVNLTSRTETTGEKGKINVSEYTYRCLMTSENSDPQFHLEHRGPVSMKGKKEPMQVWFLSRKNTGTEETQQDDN
T1 sequence (A0ACM8Q7I6 1-688): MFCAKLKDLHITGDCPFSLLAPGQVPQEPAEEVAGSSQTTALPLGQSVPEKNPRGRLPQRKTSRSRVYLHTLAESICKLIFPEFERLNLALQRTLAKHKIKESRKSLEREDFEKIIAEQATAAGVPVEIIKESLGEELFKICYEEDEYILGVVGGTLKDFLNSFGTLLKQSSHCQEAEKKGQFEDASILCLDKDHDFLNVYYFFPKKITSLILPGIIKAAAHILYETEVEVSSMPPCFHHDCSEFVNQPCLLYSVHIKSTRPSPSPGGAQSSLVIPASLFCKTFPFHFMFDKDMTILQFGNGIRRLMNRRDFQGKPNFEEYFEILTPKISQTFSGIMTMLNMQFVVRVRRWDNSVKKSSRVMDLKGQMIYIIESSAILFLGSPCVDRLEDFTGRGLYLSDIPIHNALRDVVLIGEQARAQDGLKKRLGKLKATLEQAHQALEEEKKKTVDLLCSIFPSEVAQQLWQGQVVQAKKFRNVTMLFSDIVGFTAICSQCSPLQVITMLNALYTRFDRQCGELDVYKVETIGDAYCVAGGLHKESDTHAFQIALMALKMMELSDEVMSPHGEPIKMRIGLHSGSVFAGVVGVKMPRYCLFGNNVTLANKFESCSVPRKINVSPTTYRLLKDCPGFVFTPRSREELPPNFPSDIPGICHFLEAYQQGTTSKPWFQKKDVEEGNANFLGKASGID
Briefly: Stimulation of soluble guanylate cyclase in primary endothelial cells (intracellular cGMP, radioimmunological). Format: cell-based. As to conditions: 10 min, test substance 1 μM, primary endothelial cells from pig aorta, NOSYNTH, stimulation buffer with or without NO donor (SNP 1 μM), read-out: % cGMP increase (NOSYNTH). The method, then:
as §1
Stimulation of Soluble Guanylate Cyclase in Primary Endothelial Cells
Primary endothelial cells were isolated from pig aortas by treatment with collagenase soln. The cells were then cultured in culture medium until confluence was achieved. For the investigations, the cells were passaged, inoculated into cell culture plates and subcultured until confluence was achieved. To stimulate the endothelial guanylate cyclase, the culture medium was aspirated and the cells were washed once with Ringer's solution and incubated in stimulation buffer with or without NO donor (sodium nitroprusside, SNP, 1 μM). Following this, the test substances (final concentration 1 μM) were then pipetted onto the cells. After the end of the incubation time of 10 minutes, the buffer solution was aspirated and the cells were lysed at -20° C. for 16 hours. The intracellular cGMP was then determined radioimmunologically.

On to `OCc1ccc(-c2nn(Cc3ccccc3F)c3ccccc23)o1` [Example 1, 1-(2-Fluorobenzyl)-3-(5-hydroxymethylfuran-2-yl)-indazole], for which, in assay [1] (10 mg/kg oral), the “Time (of max. blood pressure decrease table)” value came to 60 min and the “Max. blood pressure decrease” value was -14 mm Hg. Besides, in assay [1] (30 mg/kg oral), the “Time (of max. blood pressure decrease table)” value was 60 min and the “Max. blood pressure decrease” value is given as -18 mm Hg. Besides, the IC50 in assay [2] turned out to be 4.1 µM. Moreover, the activation at 1 µM in assay [3] is above 1000%.
For `COc1cccc(Cn2nc(-c3ccc(CO)o3)c3ccccc32)c1` [Example 2], the activation at 1 µM in assay [3] stood at 72%.
Turning to `OCc1ccc(-c2nn(Cc3ccc(F)cc3)c3ccccc23)o1` [Example 3], the IC50 in assay [2] amounted to 16 µM. For the same compound, the activation at 1 µM in assay [3] was 250%.
The corresponding values for `OCc1ccc(-c2nn(Cc3cccc(F)c3)c3ccccc23)o1` [Example 4] are 9.2 µM and 413%.
Take `OCc1ccc(-c2nn(Cc3ccccc3F)c3cc(F)ccc23)o1` [Example 7]: the activation at 1 µM in assay [3] stood at 734%.
Still for that read-out and setting: as for `COc1cccc(Cn2nc(-c3ccc(CO)o3)c3ccc(F)cc32)c1` [Example 8], the figure is 28%; as for `Cc1ccc(-c2nn(Cc3ccccc3)c3ccccc23)o1` [Example 10], 238%.
In the case of `OCc1ccc(-c2nn(Cc3ccccc3)c3ccccc23)s1` [Example 11], the activation at 1 µM in assay [3] was determined as 14%.
`OCc1ccc(-c2nn(Cc3ccccc3)c3ccccc23)o1` [Example 14, reference compound]: in assay [1] (10 mg/kg oral), the “Time (of max. blood pressure decrease table)” value came out at 60 min and the “Max. blood pressure decrease” value was -10 mm Hg. In assay [1] (30 mg/kg oral), the “Time (of max. blood pressure decrease table)” value is recorded as 60 min and the “Max. blood pressure decrease” value was -18 mm Hg. Further, the IC50 in assay [2] was 10 µM. Besides, in assay [3], the activation at 1 µM was above 906%.
